Values joined by “and” are separate entries in the source; they are usually repeats but may differ in a detail not shown here. Equal values may be shown once.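 96-well plates; 48 h exposure; 5 concentrations. Endpoints by linear interpolation between flanking doses. Not reached: highest tested concentration assigned. At the GI50, growth is halved.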 Active and inactive are the calls of the source. Cut-off read from the data, not from the text of the source: active = GI50 up to about 1.1 µM and inactive = higher.
Assays:
Experiment in all cases: NCI tumour cell line growth inhibition, 48 h
SF-268 = system: SF-268
OVCAR-4 = system: OVCAR-4
HCT-116 = system: HCT-116
A549 = system: A549
SR = system: SR
SK-MEL-2 = system: SK-MEL-2
COLO 205 = system: COLO 205
M14 = system: M14
A498 = system: A498
SK-MEL-28 = system: SK-MEL-28
LXFL 529 = system: LXFL 529
HL-60 = system: HL-60
HCT-15 = system: HCT-15
ACHN = system: ACHN
NCI-H23 = system: NCI-H23
SK-MEL-5 = system: SK-MEL-5
UACC-62 = system: UACC-62
SK-OV-3 = system: SK-OV-3
MDA-N = system: MDA-N
MDA-MB-231 = system: MDA-MB-231

Row | SMILES | GI50 (SF-268) | GI50 (OVCAR-4) | GI50 (HCT-116) | GI50 (A549) | GI50 (SR) | GI50 (SK-MEL-2) | GI50 (COLO 205) | GI50 (M14) | GI50 (A498) | GI50 (SK-MEL-28) | GI50 (LXFL 529) | GI50 (HL-60) | GI50 (HCT-15) | GI50 (ACHN) | GI50 (NCI-H23) | GI50 (SK-MEL-5) | GI50 (UACC-62) | GI50 (SK-OV-3) | GI50 (MDA-N) | GI50 (MDA-MB-231)
1 | Nc1nnc2c(-c3ccccc3)n[nH]c2n1 | 17.1 µM (inactive) | > 100 µM (inactive) | > 100 µM (inactive) | 23.5 µM (inactive) | 27.4 µM (inactive) | 90.2 µM (inactive) | 34.4 µM (inactive) | > 100 µM (inactive) | 12.9 µM (inactive) | 91.6 µM (inactive) | 77.4 µM (inactive) | 9.4 µM (inactive) | 52.1 µM | 30 µM (inactive) | 68.7 µM (inactive) | – | – | – | – | –
2 | COc1cc2cc[n+]3c4cc(OC)c(OC)cc4c(C)cc3c2cc1OC | – | > 100 µM (inactive) | > 100 µM (inactive) | > 100 µM (inactive) | > 100 µM (inactive) | > 100 µM (inactive) | 89.1 µM (inactive) | > 100 µM (inactive) | – | > 100 µM (inactive) | 35.6 µM (inactive) | > 100 µM (inactive) | > 100 µM | > 100 µM (inactive) | > 100 µM (inactive) | > 100 µM (inactive) | > 100 µM (inactive) | > 100 µM (inactive) | – | –
3 | CCCCCCCCCCCCCP(=O)(O)OCC | > 100 µM (inactive) | > 100 µM (inactive) | > 100 µM (inactive) | > 100 µM (inactive) | – | > 100 µM (inactive) | > 100 µM (inactive) | > 100 µM (inactive) | > 100 µM (inactive) | > 100 µM (inactive) | > 100 µM (inactive) | > 100 µM (inactive) | > 100 µM | > 100 µM (inactive) | > 100 µM (inactive) | > 100 µM (inactive) | > 100 µM (inactive) | – | – | –
4 | CC(C)OP(=S)(NC(=S)c1ccccc1)OC(C)C | > 100 µM (inactive) | > 100 µM (inactive) | > 100 µM (inactive) | > 100 µM (inactive) | – | > 100 µM (inactive) | > 100 µM (inactive) | > 100 µM (inactive) | > 100 µM (inactive) | > 100 µM (inactive) | 87.3 µM (inactive) | – | > 100 µM | > 100 µM (inactive) | > 100 µM (inactive) | 42.9 µM (inactive) | > 100 µM (inactive) | > 100 µM (inactive) | – | –
5 | CC1(C)OC2C(O1)[C@H]1OC(C(Cl)(Cl)Cl)=N[C@H]1C(I)[C@H]2N1C(=O)c2ccccc2C1=O (stereo not given in full) | 71.6 µM (inactive) | 24.1 µM (inactive) | 47.1 µM (inactive) | 32.6 µM (inactive) | 23.1 µM (inactive) | – | 33.6 µM (inactive) | 69.3 µM (inactive) | > 100 µM (inactive) | 92.3 µM (inactive) | 50.2 µM (inactive) | 17.9 µM (inactive) | 55.1 µM | 65.6 µM (inactive) | 58.2 µM (inactive) | 48.9 µM (inactive) | 54.5 µM (inactive) | – | – | –
6 | COC(=O)CC(C(C(C)=O)C(=O)OCc1ccccc1)N1C(=O)OC(c2ccccc2)C1c1ccccc1 (stereo not given) | 40.7 µM (inactive) and 54.5 µM (inactive) | – | 39.3 µM (inactive) and 24.2 µM (inactive) | 68.5 µM (inactive) and 76.2 µM (inactive) | 42.7 µM (inactive) and 42.5 µM (inactive) | 61.5 µM (inactive) and 83.4 µM (inactive) | 72.4 µM (inactive) and 77.4 µM (inactive) | – | – | 65.9 µM (inactive) and 97.7 µM (inactive) | 49.1 µM (inactive) and 50.4 µM (inactive) | 37.7 µM (inactive) and 32.2 µM (inactive) | 52.2 µM and 62.5 µM | > 100 µM (inactive) | 46.9 µM (inactive) and 55.3 µM (inactive) | 60.1 µM (inactive) | 41.1 µM (inactive) and 45.4 µM (inactive) | > 100 µM (inactive) | – | –
7 | c1ccc2c(CNCCCCCCCCNCc3cccc4ccccc34)cccc2c1 | 7.52 µM (inactive) | 2.3 µM (inactive) | 1.67 µM (inactive) | 2.2 µM (inactive) | – | 1.65 µM (inactive) | 1.96 µM (inactive) | 1.75 µM (inactive) | 14.7 µM (inactive) | 1.9 µM (inactive) | 1.82 µM (inactive) | 1.86 µM (inactive) | 1.73 µM | 2.9 µM (inactive) | 3.4 µM (inactive) | 1.85 µM (inactive) | 1.8 µM (inactive) | 17.1 µM (inactive) | – | –
8 | CC(CN1CC(=O)NC(=O)C1)N1CC(=O)NC(=O)C1 (stereo not given) [RAZOXANE] | 299 µM (inactive) | 283 µM (inactive) | 104 µM (inactive) | 32.9 µM (inactive) | 155 µM (inactive) | 399 µM (inactive) | 22.5 µM (inactive) | 217 µM (inactive) | 157 µM (inactive) | 522 µM (inactive) | – | 53.1 µM (inactive) | 100 µM | 242 µM (inactive) | 213 µM (inactive) | 198 µM (inactive) | 340 µM (inactive) | 299 µM (inactive) | 182 µM (inactive) | 171 µM (inactive)

Source: ChEMBL document CHEMBL1201862, “PubChem BioAssay data set” (2004)
